According to ChEMBL document CHEMBL1149799, “Bioactive peroxides as potential therapeutic agents” (Eur J Med Chem, 2008):
≈ marks a conversion by molar mass, not a printed value.

Assays:
P388 = test: Cytotoxicity against mouse P388 cells; format: functional, cell-based; conditions: Mus musculus, P388; for EC50: read-out: ED50 (the source's name)
KB = test: Cytotoxicity against human KB cells; format: functional, cell-based; conditions: Homo sapiens; for EC50: read-out: ED50 (the source's name)
A549 = test: Cytotoxicity against human A549 cells; format: functional, cell-based; conditions: Homo sapiens, A549; for EC50: read-out: ED50 (the source's name)
HT-29 = test: Cytotoxicity against human HT29 cells; format: functional, cell-based; conditions: Homo sapiens, HT-29; for EC50: read-out: ED50 (the source's name)
[1] = Cytotoxicity against mouse Ehrlich Ascites carcinoma by trypan blue exclusion assay; format: functional
LoVo = test: Cytotoxicity against human LoVo cells; format: functional
L1210 = test: Cytotoxicity against mouse L1210 cells; format: functional, cell-based; conditions: for IC50: Mus musculus, L1210
DU-145 = test: Cytotoxicity against human DU145 cells; format: functional, cell-based; conditions: Homo sapiens, DU-145
[2] = Cytotoxicity against human MEL28 cells; conditions: SK-MEL-28

## C/C=C/C=C/CCCCCCCCCCC[C@]1(OC)C=C[C@H](CC(=O)OC)OO1
P388
  EC50: > 10 µg/mL

## C[C@H](C/C=C/C(C)(C)OO)[C@H]1CC[C@H]2[C@@H]3C[C@@H](O)C4=CC(=O)CC[C@]4(C)[C@H]3CC[C@]12C
KB; KB
  EC50: 0.4 µg/mL (≈ 0.929 µM)
P388
  EC50: 0.28 µg/mL (≈ 0.65 µM)
A549
  EC50: 1 µg/mL (≈ 2.32 µM)
HT-29
  EC50: 0.63 µg/mL (≈ 1.46 µM)

## COC(=O)C[C@@]1(C)C[C@](C)(CC(C)CCCCCCCCc2ccccc2)OO1 (stereo not given in full) [EPIPLAKINIC ACID E]
P388
  IC50: 2 µg/mL (≈ 4.94 µM)
A549
  IC50: 2.5 µg/mL (≈ 6.18 µM)

## C=CC(CC[C@@H](C)[C@H]1CC[C@H]2[C@@H]3CC(=O)C4=CC(=O)CC[C@]4(C)[C@H]3CC[C@]12C)(OO)C(C)C (stereo not given in full)
KB; KB
  EC50: 4 µg/mL (≈ 8.76 µM)
P388
  EC50: 0.8 µg/mL (≈ 1.75 µM)
A549
  EC50: 2.5 µg/mL (≈ 5.47 µM)
HT-29
  EC50: 1.4 µg/mL (≈ 3.07 µM)

## CC(=O)[C@@H]1CC[C@@H](C)[C@@H]2CC[C@]3(C)OO[C@@]12C(=O)O3
[1]
  IC50: > 175 µM
  IC80: > 175 µM

## CC(CC/C=C/CC/C=C/c1ccccc1)C[C@]1(C)C[C@@](C)(CC(=O)O)OO1 (stereo not given in full) [PLAKINIC ACID D]
LoVo
  MIC: 0.001 µg/mL (≈ 0.00259 µM)
L1210
  IC50: 0.026 µg/mL (≈ 0.0673 µM)
KB
  MIC: 0.001 µg/mL (≈ 0.00259 µM)

## CC1=C(CCC(C)(O)/C=C/C[C@@]2(C)CC[C@H]([C@H](C)C(=O)O)OO2)C(C)(C)CCC1 (stereo not given in full) [TASNEMOXIDE A]
P388
  IC50: > 1 µg/mL
A549
  IC50: > 1 µg/mL
HT-29
  IC50: > 1 µg/mL

## C/C=C/C=C/CCCCCCCCCCCCC[C@@]1(OC)C=C[C@@H](CC(=O)OC)OO1 [XESTIN B]
P388
  IC50: 3 µg/mL (≈ 6.87 µM)

## C=CCCC/C=C/C=C\CCCCCCCC[C@@H]1CC[C@@H]([C@@H]2CC[C@@H](CC(=O)[O-])OO2)O1.[Na+]
DU-145
  IC50: 0.1 µg/mL
P388
  IC50: 0.01 µg/mL
A549
  IC50: 0.1 µg/mL
HT-29
  IC50: 0.1 µg/mL

## C[C@H](C/C=C/C(C)(C)OO)[C@H]1CC[C@H]2[C@@H]3CC=C4C[C@@H](O)CC[C@]4(C)[C@H]3CC[C@]12C
KB; KB
  EC50: 1.41 µg/mL (≈ 3.38 µM)
P388
  EC50: 0.22 µg/mL (≈ 0.528 µM)
A549
  EC50: 1.68 µg/mL (≈ 4.03 µM)
HT-29
  EC50: 1.27 µg/mL (≈ 3.05 µM)

## CC(C)(O)/C=C/C[C@@](C)(O)[C@H]1CC[C@@](C)([C@H]2CC[C@H]([C@]3(C)CC[C@H]([C@](C)(O)C/C=C/C(C)(C)OO)O3)O2)O1
KB; KB
  IC50: 5.3 µg/mL (≈ 9.8 µM)

## CC/C=C/C(CC)CC(C)CC1(CC)C=C(CC)C(CC(=O)OC)OO1 (stereo not given)
P388
  IC50: 0.055 µg/mL (≈ 0.15 µM)

## C/C1=C\CC[C@]2(C)O[C@H]([C@@H]3OC(=O)[C@]4(OO)CCO[C@@H]2C[C@H]34)[C@H](C)CCC1 [PLANAXOOL]
L1210
  IC100: 2.4 µg/mL

## C[C@@H]1CC[C@@H]2[C@]34OO[C@@](C)(CC[C@@H]13)O[C@H]4OC(=O)[C@@]2(C)O
[1]
  IC50: > 125 µM
  IC80: > 125 µM

## C/C=C/C=C/CCCCCCCCCCCCC[C@]1(OC)C=C[C@@H](CC(=O)OC)OO1 [XESTIN A]
P388
  IC50: 0.3 µg/mL (≈ 0.687 µM)

## C=CCCC/C=C/C=C\CCCCCCCC[C@H]1CC[C@@H]([C@H]2CC[C@@H](CC(=O)O)OO2)O1 [STOLONOXIDE B]
DU-145
  IC50: 0.1 µg/mL (≈ 0.223 µM)
P388
  IC50: 0.05 µg/mL (≈ 0.111 µM)
[2]
  IC50: 0.1 µg/mL (≈ 0.223 µM)
A549
  IC50: 0.1 µg/mL (≈ 0.223 µM)
HT-29
  IC50: 0.1 µg/mL (≈ 0.223 µM)

## CC(=O)CCCC(C)(C)C(=O)CC/C(C)=C/CC[C@@]1(C)CC[C@H]([C@H](C)C(=O)O)OO1 [AIKUPIKOXIDE A]
P388
  IC50: > 1 µg/mL
A549
  IC50: > 1 µg/mL
HT-29
  IC50: > 1 µg/mL

## CO[C@H]1O[C@@H]2O[C@@]3(C)CC[C@H]4[C@H](C)CC[C@@H]([C@H]1C)[C@@]24OO3
[1]
  IC80: > 125 µM

## C[C@@H]1CCC2[C@@H](C)[C@H](O[C@@H]3O[C@H]4O[C@@]5(C)CC[C@@H]6[C@@H](C)CCC([C@@H]3C)[C@]46OO5)O[C@@H]3O[C@]4(C)CC[C@@H]1[C@@]23OO4 (stereo not given in full)
[1]
  IC50: 1.4 µM
  IC80: 2.4 µM

## C=CCCC/C=C/C=C\CCCCCCCC[C@H]1CC[C@H]([C@@H]2CC[C@@H](CC(=O)OC)OO2)O1
DU-145
  IC50: 0.1 µg/mL (≈ 0.216 µM)
P388
  IC50: 0.01 µg/mL (≈ 0.0216 µM)
[2]
  IC50: 0.1 µg/mL (≈ 0.216 µM)
A549
  IC50: 0.01 µg/mL (≈ 0.0216 µM)
HT-29
  IC50: 0.05 µg/mL (≈ 0.108 µM)

## COC(=O)C[C@@]1(C)C[C@@](C)(CC(C)CCCC/C=C/CC/C=C\c2ccccc2)OO1 (stereo not given in full)
LoVo
  MIC: 1 µg/mL (≈ 2.33 µM)
L1210
  IC50: 0.29 µg/mL (≈ 0.677 µM)
KB
  MIC: 0.1 µg/mL (≈ 0.233 µM)

## CCCCCCCC/C=C/C(=O)O[C@@H]1[C@@H](C)[C@@]2(O)[C@H]([C@@H]3C(C)(C)[C@]13OC(C)=O)[C@@H](OO)C(CO)=C[C@]1(O)C(=O)C(C)=C[C@@H]21 [OSTODIN]
KB; KB
  EC50: ≤ 4000 µg/mL
P388
  EC50: ≤ 4000 µg/mL

## C=C(C)C(CC[C@@H](C)[C@H]1CC[C@H]2[C@@H]3CC(=O)C4=CC(=O)CC[C@]4(C)[C@H]3CC[C@]12C)OO (stereo not given in full)
KB; KB
  EC50: 1.15 µg/mL (≈ 2.68 µM)
P388
  EC50: 0.53 µg/mL (≈ 1.24 µM)
A549
  EC50: 0.88 µg/mL (≈ 2.05 µM)
HT-29
  EC50: 1.48 µg/mL (≈ 3.45 µM)

## C=C1C(=O)O[C@H]2C[C@](C)(O)CCC[C@](C)(OO)C/C=C/[C@@]3(C)O[C@H]3C[C@@H]12
P388
  IC50: 0.1 µg/mL (≈ 0.273 µM)
